Patent publication US20180008637A1, “NATURAL KILLER CELLS AND USES THEREOF” (ANTHROGENESIS CORPORATION, priority 2014, published 2018)

System: CD34+ cells
Assay: Three-stage method with SR-1 or CH223191 in Stage 1 and Stage 2 media: NK cell expansion, purity, cytotoxicity
Type: cell-based
Settings: for effects on fold expansion, cell purity (CD56+CD3−), and cytotoxicity of K562 cells at a 10:1 (E:T) ratio: SR-1 and CH223191 compared at 10 μM and 1 μM
Method: CD34^+ cells are cultured in the following medium formulations for the indicated number of days, and aliquots of cells are taken for assessment of cell count, cell viability, characterization of natural killer cell differentiation and functional evaluation.
Stage 1 medium: 90% Stem Cell Growth Medium (SCGM) (CellGro®), 10% Human Serum-AB, supplemented with 4.5 U/mL low molecular weight heparin (LMWH), 25 ng/mL recombinant human thrombopoietin (TPO), 25 ng/mL recombinant human Flt3L, 27 ng/mL recombinant human stem cell factor (SCF), 25 ng/mL recombinant human IL-7, 0.05 ng/mL recombinant human IL-6 (500-fold), 0.25 ng/mL recombinant human granulocyte colony-stimulating factor (G-CSF) (50-fold), 0.01 ng/mL recombinant human granulocyte-macrophage colony-stimulating factor (GM-CSF) (500-fold), 0.10% gentamicin, and 1 to 10 μm StemRegenin-1 (SR-1).
Stage 2 medium: 90% SCGM, 10% Human Serum-AB, supplemented with 4.5 U/mL low molecular weight heparin (LMWH), 25 ng/mL recombinant human Flt3L, 27 ng/mL recombinant human SCF, 25 ng/mL recombinant human IL-7, 20 ng/mL recombinant human IL-15, 0.05 ng/mL recombinant human IL-6 (500-fold), 0.25 ng/mL recombinant human G-CSF (50-fold), 0.01 ng/mL recombinant human GM-CSF (500-fold), 0.10% gentamicin, and 1 to 10 μm SR1.
Stemregenin-1 (SR-1) was evaluated as a component of Stage 1 and Stage 2 media using the three-stage method outlined in Example 1, above, at concentrations of 1 μM, 10 μM, and 30 μM. The same concentrations of CH223191 in the three-stage method were also evaluated.

| SMILES | effects on fold expansion, cell purity (CD56+CD3−), and cytotoxicity of K562 cells at a 10:1 (E:T) ratio | cytotoxicity of the NK cells produced (SR-1 at 10 μM versus 1 μM and 30 μM in Stage 1 and Stage 2 media) |
| --- | --- | --- |
| Cc1ccccc1/N=N/c1ccc(NC(=O)c2ccnn2C)c(C)c1 [CH223191, 1-methyl-N-(2-methyl-4-(2-(2-methylphenyl)diazenyl)phenyl)-1H-pyrazole-5-carboxamide] | Comparable effects | – |
| CC(C)n1cnc2c(NCCc3ccc(O)cc3)nc(-c3csc4ccccc34)nc21 [SR-1, 4-(2-(2-(benzo[b]thien-3-yl)-9-isopropyl-9H-purin-6-ylamino)ethyl)phenol] | Comparable effects | higher cytotoxicity than the other two concentrations tested |
